Data taken from patent US10238670B2, “9-aminomethyl minocycline compounds and methods of use thereof in urinary tract infection (UTI) treatment” (Paratek Pharmaceuticals, Inc., priority 2016, dated 2019).
Read-outs that look alike come from different tables or passages of the source.

Experiment: Phase 1b study in female adults with cystitis, plasma PK
Type: in vivo, human
Settings: plasma, plasma; for half-life / AUC(0-t) / Cmax / concentration at 5 day / Tmax: female, human
Experimental: According to the study design, a randomized (1:1:1), open-label, parallel designed Phase 1b study comparing 3 dosing regimens of Compound 1 (9-[(2,2-dimethyl-propyl amino)-methyl-minocycline) in the treatment of female adults with cystitis was conducted. About 31 female patients with uncomplicated urinary tract infection (cystitis) who met inclusion and exclusion criteria were enrolled at 2-4 U.S. treatment centers. All enrolled subjects participated in the study for approximately 5-6 weeks. Following Screening of up to 48 hrs, eligible subjects were randomly assigned to receive one of 3 dosing regimens of Compound 1 treatment as shown below. Subjects in all treatment groups were domiciled for a 5-day treatment period. Details of the study are further described below.
Subjects were randomized (1:1:1) to one of the following treatment arms: • 1. Group 1: IV load, p.o. daily (200 mg Compound 1 IV every 24 hours (q24h) for 1 dose, followed by 300 mg p.o. q24h for a total of 5 days); • 2. Group 2: p.o. load, p.o. daily (300 mg Compound 1 p.o. every 12 hours (q12h) for 2 doses, followed by 300 mg p.o. q24h for a total of 5 days); • 3. Group 3: high p.o. load, high p.o. daily (450 mg Compound 1 p.o. q12h for 2 doses, followed by 450 mg p.o. q24h for a total of 5 days).
Blood samples were collected and analyzed for Compound 1 concentration at the following times. Pre-dose blood PK evaluations were based on blood samples collected within 10 min of each start (e.g., t=0 h dose for Day 1, t=24 h dose for Day 2, etc.). • Day 1: Pre-dose, and 0.75, 1, 2, 3, 4, 6, 8 and 12 hours after the t=0 h dose (12 h sample before the t=12 h dose for Groups 2 and 3); • Day 2: prior to the t=24 h dose; • Day 3: prior to the t=48 h dose; • Day 4: prior to the t=72 h dose; • Day 5: Pre-dose, and 0.5, 1, 2, 3, 4, 6, 8 and 12 hours after the t=96 h dose • Day 6: at t=120 h (24 hours after the t=96 h dose on Day 5)
Following the final oral doses on Day 5 the Compound 1 plasma concentration-time data for Groups 1, 2 and 3 were used to determine Cmax, Tmax, AUC24h, AUCt. Trough plasma concentrations (Ctrough) following each dose (Days 2 to 6) were also determined.
Blood samples for PK are collected at the time points specified below. • Day 1: Predose, and 0.75, 1, 2, 3, 4, 6, 8 and 12 hours after the t=0 h dose (12 h sample before the t=12 h dose for Groups 2 and 3); • Day 2: prior to the t=24 h dose; • Day 3: prior to the t=48 h dose; • Day 4: prior to the t=72 h dose; • Day 5: Predose, and 0.5, 1, 2, 3, 4, 6, 8 and 12 hours after the t=96 h dose • Day 6: at t=120 h (24 hours after the t=96 h dose on Day 5)
Blood was collected either by fresh venipuncture or via a cannula used solely for that purpose. The dates and times for all doses of test article and PK sample collections were recorded. For intravenously administered doses of test article, the start and stop times for each infusion were recorded. Immediately after the sample was collected, the tube was gently inverted 5 to 8 times to thoroughly mix the anticoagulant and then placed upright in a cryoblock or test tube rack surrounded by ice until centrifugation. Samples were centrifuged at 1500×g for 10 minutes at approximately 4° C. within 30 minutes of collection. The resultant plasma was divided into 2 equal aliquots, placed in individual cryovials, and immediately frozen at −20° C. or colder within 1 hour of collection. The samples were kept frozen at −20° C. or colder pending shipment to the bioanalytical laboratory.
The Compound 1 plasma concentration data was listed and summarized by time point and treatment group. The following PK parameters were estimated from the Compound 1 plasma concentration-time data: […]

Work on `CN(C)c1cc(CNCC(C)(C)C)c(O)c2c1C[C@H]1C[C@H]3[C@H](N(C)C)C(O)=C(C(N)=O)C(=O)[C@@]3(O)C(O)=C1C2=O` [Compound 1, 9-[(2,2-dimethyl-propylamino)-methyl]-minocycline] yielded a half-life (oral, 300 mg, Day 5, IV_PO300, read-out: T½, Mean (converted)) of 13.8 h, a half-life (oral, 300 mg, Day 5, IV_PO300, read-out: T½, Median (converted)) of 12.1 h and an AUC(0-t) (oral, 300 mg, Day 5, PO300, read-out: AUC(0-24 hrs), Geo. Mean) of 12400 ng·h/mL. It also gave an AUC(0-t) (oral, 300 mg, Day 5, PO300, read-out: AUC(0-24 hrs), Mean) of 13500 ng·h/mL, an AUC(0-t) (oral, 300 mg, Day 5, PO300, read-out: AUC(0-24 hrs), Median) of 13400 ng·h/mL and a Cmax (oral, 300 mg, Day 5, PO300, read-out: Cmax, Geo. Mean) of 999 ng/mL. It also gave a Cmax (oral, 300 mg, Day 5, PO300, read-out: Cmax, Mean) of 1120 ng/mL, a Cmax (oral, 300 mg, Day 5, PO300, read-out: Cmax, Median) of 1070 ng/mL and a concentration at 5 day (oral, 300 mg, Day 5, PO300, read-out: Ctrough, Geo. Mean) of 293 ng/mL. The concentration at 5 day (oral, 300 mg, Day 5, PO300, read-out: Ctrough, Mean) was 319 ng/mL, the concentration at 5 day (oral, 300 mg, Day 5, PO300, read-out: Ctrough, Median) was 315 ng/mL and the Tmax (oral, 300 mg, Day 5, PO300, read-out: Tmax, Geo. Mean) was 3.61 h. For the same compound, the Tmax (oral, 300 mg, Day 5, PO300, read-out: Tmax, Mean) was 3.9 h, the Tmax (oral, 300 mg, Day 5, PO300, read-out: Tmax, Median) was 3 h and the AUC(0-t) (oral, 450 mg, Day 1, PO450, read-out: AUC(0-12 hrs), Geo. Mean) was 6690 ng·h/mL. For the same compound, the AUC(0-t) (oral, 450 mg, Day 1, PO450, read-out: AUC(0-12 hrs), Mean) was 6850 ng·h/mL, the AUC(0-t) (oral, 450 mg, Day 1, PO450, read-out: AUC(0-12 hrs), Median) was 6650 ng·h/mL and the Cmax (oral, 450 mg, Day 1, PO450, read-out: Cmax, Geo. Mean) was 948 ng/mL. For the same compound, the Cmax (oral, 450 mg, Day 1, PO450, read-out: Cmax, Mean) was 987 ng/mL, the Cmax (oral, 450 mg, Day 1, PO450, read-out: Cmax, Median) was 947 ng/mL and the Tmax (oral, 450 mg, Day 1, PO450, read-out: Tmax, Geo. Mean) was 2.21 h. It also gave a Tmax (oral, 450 mg, Day 1, PO450, read-out: Tmax, Median) of 3 h, an AUC(0-t) (oral, 450 mg, Day 5, PO450, read-out: AUC(0-24 hrs), Geo. Mean) of 18700 ng·h/mL and an AUC(0-t) (oral, 450 mg, Day 5, PO450, read-out: AUC(0-24 hrs), Mean) of 19800 ng·h/mL. For the same compound, the AUC(0-t) (oral, 450 mg, Day 5, PO450, read-out: AUC(0-24 hrs), Median) was 21600 ng·h/mL, the Cmax (oral, 450 mg, Day 5, PO450, read-out: Cmax, Geo. Mean) was 1360 ng/mL and the Cmax (oral, 450 mg, Day 5, PO450, read-out: Cmax, Mean) was 1490 ng/mL. The Cmax (oral, 450 mg, Day 5, PO450, read-out: Cmax, Median) was 1640 ng/mL, the concentration at 5 day (oral, 450 mg, Day 5, PO450, read-out: Ctrough, Geo. Mean) was 462 ng/mL and the concentration at 5 day (oral, 450 mg, Day 5, PO450, read-out: Ctrough, Mean) was 484 ng/mL. For the same compound, the concentration at 5 day (oral, 450 mg, Day 5, PO450, read-out: Ctrough, Median) was 503 ng/mL, the Tmax (oral, 450 mg, Day 5, PO450, read-out: Tmax, Geo. Mean) was 2.64 h and the Tmax (oral, 450 mg, Day 5, PO450, read-out: Tmax, Mean) was 3.36 h. The Tmax (oral, 450 mg, Day 5, PO450, read-out: Tmax, Median) was 3.02 h, the Tmax (po, 300 mg, Day 1, 300 mg po (n = 10), median, read-out: tmax) was 3 h and the Cmax (po, 300 mg, Day 5, 300 mg po (n = 10), mean, read-out: Cmax) was 1120 ng/mL. For the same compound, the Tmax (po, 300 mg, Day 5, 300 mg po (n = 10), median, read-out: tmax) was 3 h, the AUC(0-t) (po, 450 mg, Day 1, 450 mg po (n = 10), mean, read-out: AUC0-12) was 6850 ng·h/mL and the Tmax (po, 450 mg, Day 1, 450 mg po (n = 10), median, read-out: tmax) was 3 h. The Cmax (po, 450 mg, Day 1, 450 mg po (n = 10), mean, read-out: Cmax) was 990 ng/mL, the AUC(0-t) (po, 450 mg, Day 5, 450 mg po (n = 10), mean, read-out: AUC0-24) was 19800 ng·h/mL and the Cmax (po, 450 mg, Day 5, 450 mg po (n = 10), mean, read-out: Cmax) was 1490 ng/mL. The Tmax (po, 450 mg, Day 5, 450 mg po (n = 10), median, read-out: tmax) was 3 h, the “Lambda Z, Geo. Mean” value (Day 1, IV_PO300) was 0.0614 h⁻¹ and the “Lambda Z, Mean” value (Day 1, IV_PO300) was 0.0620 h⁻¹. The “Lambda Z, Median” value (Day 1, IV_PO300) was 0.0605 h⁻¹, the “Tmax, Mean” value (Day 1, PO450) was 2.492 h and the “Lambda Z, Geo. Mean” value (Day 5, IV_PO300) was 0.0526 h⁻¹. For the same compound, the “Lambda Z, Mean” value (Day 5, IV_PO300) was 0.0545 h⁻¹ and the “Lambda Z, Median” value (Day 5, IV_PO300) was 0.0574 h⁻¹.
